Measured values taken from patent publication US11548888B2, “KRas G12C inhibitors” (Mirati Therapeutics, Inc., priority 2019, dated 2023).

Molecular target: T1, KRas G12C (Homo sapiens, UniProt P01116, G12C)
T1 construct: NCI-H358 cells (ATCC CRL-5807) express KRas G12C
Assay: Inhibition of KRas G12C-dependent cell growth: Phospho-ERK in NCI-H358 cells
Format: cell-based
Conditions: NCI-H358 cells expressing KRas G12C; Phospho-ERK (Thr202/Tyr204) normalized to GAPDH; 3 hours compound; 4 parameter fit
Summary of the method: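 NCI-H358 cells (KRas G12C) exposed to compounds for 3 h, 0.5% DMSO final. Fixed cells immunostained for pERK(Thr202/Tyr204) and GAPDH with infrared secondary antibodies. pERK normalized to GAPDH, expressed as percent of DMSO control; IC50 from 4-parameter dose-response fit.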

T1 sequence (P01116 1-188 isoform P01116-2 G12C): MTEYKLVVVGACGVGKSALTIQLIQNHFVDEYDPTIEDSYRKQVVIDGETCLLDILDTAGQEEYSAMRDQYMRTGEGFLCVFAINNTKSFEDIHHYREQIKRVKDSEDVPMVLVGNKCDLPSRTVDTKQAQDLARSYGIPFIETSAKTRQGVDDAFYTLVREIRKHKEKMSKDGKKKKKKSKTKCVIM

IC50 [µM]	Structure (SMILES)
0.062	COC/C=C/C(=O)N1CCN(c2nc(OC[C@@H]3C[C@@H](F)CN3C)nc3c(F)c(-c4cccc5cccc(C)c45)ncc23)C[C@@H]1CC#N [Example 49, 2-[(2S)-4-[8-fluoro-2-[[(2S,4R)-4-fluoro-1-methyl-pyrrolidin-2-yl]methoxy]-7-(8-methyl-1-naphthyl)pyrido[4,3-d]pyrimidin-4-yl]-1-[(E)-4-methoxybut-2-enoyl]piperazin-2-yl]acetonitrile]
0.053	C=C(F)C(=O)N1CCN(c2nc(OC[C@@H]3C[C@@H](F)CN3C)nc3c(F)c(-c4cncc5cccc(C)c45)ncc23)C[C@@H]1CC#N [Example 50, 2-[(2S)-4-[8-fluoro-2-[[(2S,4R)-4-fluoro-1-methyl-pyrrolidin-2-yl]methoxy]-7-(5-methyl-4-isoquinolyl)pyrido[4,3-d]pyrimidin-4-yl]-1-(2-fluoroprop-2-enoyl)piperazin-2-yl]acetonitrile]
0.019	Cc1cccc2cncc(-c3ncc4c(N5CCN(C(=O)/C=C/CF)[C@@H](CC#N)C5)nc(OC[C@@H]5C[C@@H](F)CN5C)nc4c3F)c12 [Example 51, 2-[(2S)-1-[(E)-4-fluorobut-2-enoyl]-4-[8-fluoro-2-[[(2S,4R)-4-fluoro-1-methyl-pyrrolidin-2-yl]methoxy]-7-(5-methyl-4-isoquinolyl)pyrido[4,3-d]pyrimidin-4-yl]piperazin-2-yl]acetonitrile]
0.023	C=C(F)C(=O)N1CCN(c2nc(OC[C@@H]3C[C@@H](F)CN3C)nc3c(F)c(-c4cncc5cccc(Cl)c45)ncc23)C[C@@H]1CC#N [Example 52, 2-[(2S)-4-[7-(5-chloro-4-isoquinolyl)-8-fluoro-2-[[(2S,4R)-4-fluoro-1-methyl-pyrrolidin-2-yl]methoxy]pyrido[4,3-d]pyrimidin-4-yl]-1-(2-fluoroprop-2-enoyl)piperazin-2-yl]acetonitrile]
0.017	CN1C[C@H](F)C[C@H]1COc1nc(N2CCN(C(=O)/C=C/CF)[C@@H](CC#N)C2)c2cnc(-c3cncc4cccc(Cl)c34)c(F)c2n1 [Example 53, 2-[(2S)-4-[7-(5-chloro-4-isoquinolyl)-8-fluoro-2-[[(2S,4R)-4-fluoro-1-methyl-pyrrolidin-2-yl]methoxy]pyrido[4,3-d]pyrimidin-4-yl]-1-[(E)-4-fluorobut-2-enoyl]piperazin-2-yl]acetonitrile]
0.014	C=C(F)C(=O)N1CCN(c2nc(OC[C@@H]3CCCN3C)nc3c(F)c(-c4cncc5cccc(Cl)c45)ncc23)C[C@@H]1CC#N [Example 54, 2-((S)-4-(7-(5-chloroisoquinolin-4-yl)-8-fluoro-2-(((S)-1-methylpyrrolidin-2-yl)methoxy)pyrido[4,3-d]pyrimidin-4-yl)-1-(2-fluoroacryloyl)piperazin-2-yl)acetonitrile]
0.09	Cc1cccc2cncc(-c3ncc4c(N5CCN(C(=O)/C=C/CF)[C@@H](CC#N)C5)nc(OC[C@@H]5CC(F)(F)CN5C)nc4c3F)c12 [Example 55, 2-((S)-4-(2-(((S)-4,4-difluoro-1-methylpyrrolidin-2-yl)methoxy)-8-fluoro-7-(5-methylisoquinolin-4-yl)pyrido[4,3-d]pyrimidin-4-yl)-1-((E)-4-fluorobut-2-enoyl)piperazin-2-yl)acetonitrile]
0.028	C=C(F)C(=O)N1CCN(c2nc(OC[C@@H]3C[C@@H](OC)CN3C)nc3c(F)c(-c4cncc5cccc(Cl)c45)ncc23)C[C@@H]1CC#N [Example 56, 2-[(2S)-4-[7-(5-chloro-4-isoquinolyl)-8-fluoro-2-[[(2S,4R)-4-methoxy-1-methyl-pyrrolidin-2-yl]methoxy]pyrido[4,3-d]pyrimidin-4-yl]-1-(2-fluoroprop-2-enoyl)piperazin-2-yl]acetonitrile]
0.058	COC/C=C/C(=O)N1CCN(c2nc(OC[C@@H]3C[C@@H](OC)CN3C)nc3c(F)c(-c4cccc5cccc(C)c45)ncc23)C[C@@H]1CC#N [Example 57, 2-[(2S)-4-[8-fluoro-2-[[(2S,4R)-4-methoxy-1-methyl-pyrrolidin-2-yl]methoxy]-7-(8-methyl-1-naphthyl)pyrido[4,3-d]pyrimidin-4-yl]-1-[(E)-4-methoxybut-2-enoyl]piperazin-2-yl]acetonitrile]
0.33	C=C(F)C(=O)N1CCN(c2nc(OC[C@@H]3CCCN3C)nc3c(C#N)c(-c4cccc5cccc(C)c45)ncc23)C[C@@H]1CC#N [Example 58, 4-[(3S)-3-(cyanomethyl)-4-(2-fluoroprop-2-enoyl)piperazin-1-yl]-7-(8-methyl-1-naphthyl)-2-[[(2S)-1-methylpyrrolidin-2-yl]methoxy]pyrido[4,3-d]pyrimidine-8-carbonitrile]
0.06	C=C(F)C(=O)N1CCN(c2nc(OCC3CCN3C(C)(C)C)nc3c(F)c(-c4cccc5cccc(Cl)c45)ncc23)C[C@@H]1CC#N (stereo partly drawn) [Example 59, 2-[(2S)-4-[2-[(1-tert-butylazetidin-2-yl)methoxy]-7-(8-chloro-1-naphthyl)-8-fluoro-pyrido[4,3-d]pyrimidin-4-yl]-1-(2-fluoroprop-2-enoyl)piperazin-2-yl]acetonitrile]
0.127	C=CC(=O)N1CCN(c2nc(OC[C@@H]3CCCN3C)nc3c(F)c(-c4ccccc4F)ncc23)C[C@@H]1CC#N [Example 60, 2-[(2S)-4-[8-fluoro-7-(2-fluorophenyl)-2-[[(2S)-1-methylpyrrolidin-2-yl]methoxy]pyrido[4,3-d]pyrimidin-4-yl]-1-prop-2-enoyl-piperazin-2-yl]acetonitrile]
0.07	COC/C=C/C(=O)N1CCN(c2nc(OC[C@@H]3CCCN3C)nc3c(F)c(-c4cccc5cccc(C)c45)ncc23)C[C@@H]1CC#N [Example 61, 2-[(2S)-4-[8-fluoro-7-(8-methyl-1-naphthyl)-2-[[(2S)-1-methylpyrrolidin-2-yl]methoxy]pyrido[4,3-d]pyrimidin-4-yl]-1-[(E)-4-methoxybut-2-enoyl]piperazin-2-yl]acetonitrile]
0.018	COC/C=C/C(=O)N1CCN(c2nc(OC[C@@H]3C[C@@H](OC)CN3C)nc3c(F)c(-c4cccc5cccc(Cl)c45)ncc23)C[C@@H]1CC#N [Example 62, 2-((S)-4-(7-(8-chloronaphthalen-1-yl)-8-fluoro-2-(((2S,4R)-4-methoxy-1-methylpyrrolidin-2-yl)methoxy)pyrido[4,3-d]pyrimidin-4-yl)-1-((E)-4-methoxybut-2-enoyl)piperazin-2-yl)acetonitrile]
2.85	C=C(F)C(=O)N1CCN(c2nc(OC[C@@H]3CCCN3C)nc3c(OCC(F)(F)F)c(-c4cccc5cccc(C)c45)ncc23)C[C@@H]1CC#N [Example 63, 2-((S)-1-(2-fluoroacryloyl)-4-(7-(8-methylnaphthalen-1-yl)-2-(((S)-1-methylpyrrolidin-2-yl)methoxy)-8-(2,2,2-trifluoroethoxy)pyrido[4,3-d]pyrimidin-4-yl)piperazin-2-yl)acetonitrile]
0.376	C=C(F)C(=O)N1CCN(c2nc(OC3CCN(C4CCOCC4)CC3)nc3c(F)c(-c4cccc5cccc(Cl)c45)ncc23)C[C@@H]1CC#N [Example 64]
0.036	C=C(F)C(=O)N1CCN(c2nc(OCC3CN(C)CCO3)nc3c(F)c(-c4cccc5cccc(Cl)c45)ncc23)C[C@@H]1CC#N (stereo partly shown) [Example 65]

IC50 [µM]	Structure (SMILES)
0.012	CC(C)(C)N1CCC1COc1nc(N2CCN(C(=O)/C=C/CF)[C@@H](CC#N)C2)c2cnc(-c3cccc4cccc(Cl)c34)c(F)c2n1 (stereo partly shown) [Example 66]
0.086	C=C(F)C(=O)N1CCN(c2nc(OCCN(C)C)nc3c(F)c(-c4cccc5cccc(Cl)c45)ncc23)C[C@@H]1CC#N [Example 68]
0.058	C=CC(=O)N1CCN(c2nc(OC[C@@H]3CCCN3C)nc3c(F)c(-c4cccc5cccc(Cl)c45)ncc23)[C@@H](C)C1 [Example 69]
0.456	C=C(F)C(=O)N1CCN(c2nc(OC3CCN(C)CC3)nc3c(F)c(-c4cccc5cccc(Cl)c45)ncc23)C[C@@H]1CC#N [Example 70]
0.013	C=C(F)C(=O)N1CCN(c2nc(OCC3CCN3C)nc3c(F)c(-c4cccc5cccc(Cl)c45)ncc23)C[C@@H]1CC#N (stereo partly shown) [Example 71]
0.593	C=C(F)C(=O)N1CCN(c2nc(O[C@H](C)CN(C)C)nc3c(F)c(-c4cccc5cccc(Cl)c45)ncc23)C[C@@H]1CC#N [Example 73]
1.35	C=CC(=O)N1CC2(CCN(c3nc(OC4CCN(C5CCOCC5)CC4)nc4c(F)c(-c5cccc6cccc(Cl)c56)ncc34)CC2)C1 [Example 74]
1.19	C=C(F)C(=O)N1CCN(c2nc(OC[C@@H]3CCCN3C)nc3c(F)c(-c4cccc5cccc(Cl)c45)ncc23)[C@@H](C)C1 [Example 75]
3	C=C(F)C(=O)N1CCN(c2nc(OC[C@@H]3CCCN3C)nc3c(F)c(-c4cccc5cccc(Cl)c45)ncc23)[C@H](C)C1 [Example 76]
0.002	C=C(F)C(=O)N1CCN(c2nc(OCC34CCCN3CCC4)nc3c(F)c(-c4cccc5cccc(Cl)c45)ncc23)C[C@@H]1CC#N [Example 77]
0.013	COC/C=C/C(=O)N1CCN(c2nc(OC[C@@H]3CCCN3C)nc3c(F)c(-c4cccc5cccc(Cl)c45)ncc23)C[C@@H]1CC#N [Example 78]
0.675	C=CC(=O)N1CCN(c2nc(OC[C@@H]3CCCN3C)nc3c(F)c(-c4c(C)ccc5[nH]ncc45)ncc23)[C@@H](C)C1 [Example 79]
2.52	C=CC(=O)N1CCN(c2nc(OC[C@@H]3CCCN3C)nc3c(F)c(-c4c(C)ccc5[nH]ncc45)ncc23)CC1 [Example 80]
1.1	C=C(F)C(=O)N1CCN(c2nc(OC[C@@H]3CCCN3C)nc3c(F)c(-c4c(O)cccc4F)ncc23)C[C@@H]1CC#N [Example 81]
0.618	C=C(F)C(=O)N1CCN(c2nc(OCCc3cccc(N)c3)nc3c(F)c(-c4cccc5cccc(Cl)c45)ncc23)C[C@@H]1CC#N [Example 82]
3.5	C=CC(=O)N1CC2(CCN(c3nc(OC[C@@H]4CCCN4C)nc4c(F)c(-c5c(C)ccc6[nH]ncc56)ncc34)CC2)C1 [Example 83]
0.765	C=C(F)C(=O)N1CCN(c2nc(OC[C@@H]3CCCN3C)nc3c(F)c(-c4cccc5cnn(C)c45)ncc23)C[C@@H]1CC#N [Example 84]
